Data taken from paper PMC6927504, “Screening of House Dust from Chinese Homes for Chemicals with Liver X Receptors Binding Activities and Characterization of Atherosclerotic Activity Using an in Vitro Macrophage Cell Line and ApoE^−/− Mice” (Environmental Health Perspectives, 2019).

Experiments:
[1] = tested on: mouse peritoneal macrophages; assay: NBD-cholesterol efflux in peritoneal macrophages isolated from exposed C57BL/6 mice; assay type: in vivo; conditions: 200 mg/kg BW for 7 d
Experimental: RAW264.7 cells or mouse peritoneal macrophages were plated in 96-well plates at 10^4 cells/well and cultured with DMEM-F12 containing 10% FBS and 1μg/mL 22-[N-(7-nitrobenz-2-oxa-1,3-diazol-4-yl)amino]-23,24-bisnor-5-cholen-3β-Ol (NBD-cholesterol) for 24 h. Subsequently, the medium was completely removed and fresh DMEM-F12 containing 10% FBS and 0.1% DMSO (control; n=3 ) or TPHP at the concentration of 1–20,000 nM ( n=3 per group) was added. After a further 24-h incubation, the cells were washed with phosphate-buffered saline (PBS) and then incubated with serum-free medium containing ApoA-I ( 20μg/mL ) or high-density lipoprotein (HDL; 50μg/mL ) for 4 h. Then the medium was collected, and the cells were lysed with a cell lysis buffer. NBD-cholesterol in the medium and cell lysis buffer were measured, respectively, using a Tecan Infinite® M1000Pro Microplate Reader (Tecan Group Ltd.) at 485-nm excitation wavelength and 535-nm emission wavelength. Cholesterol efflux was expressed as a percentage of fluorescence in the medium relative to the total amount of fluorescence.
All experiments related to animals were approved by the institutional animal care and use committee of Peking University and followed the guidelines for animal experiments of the university as well as for experimental animals in China. […] Body weight (BW) was measured every week during the dosing period. […]

human LXRβ = molecular target: T1, human LXRβ (Homo sapiens, UniProt P55055); assay: cell-based
T1 sequence (P55055 219-460): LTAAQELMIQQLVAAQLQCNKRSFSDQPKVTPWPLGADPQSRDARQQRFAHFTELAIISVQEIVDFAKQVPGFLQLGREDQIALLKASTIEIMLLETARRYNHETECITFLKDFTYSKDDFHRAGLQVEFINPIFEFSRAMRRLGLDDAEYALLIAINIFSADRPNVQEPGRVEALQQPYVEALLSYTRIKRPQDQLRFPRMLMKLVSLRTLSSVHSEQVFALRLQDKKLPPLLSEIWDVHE

Compound: O=P(Oc1ccccc1)(Oc1ccccc1)Oc1ccccc1 [TPHP, triphenyl phosphate]
- ApoA-I-mediated cholesterol efflux in peritoneal macrophages [1]: Significant inhibition
- HDL-mediated cholesterol efflux in peritoneal macrophages [1]: Significant inhibition
- IC50 (human LXRβ): 762 nM
